# Patent publication US10738028B2, “Spiro three-membered ring, spiro five-membered ring peptide deformylase inhibitor and use thereof in antibacteria and anti-tumor” (priority 2016, dated 2020)
# Tests used:
# Assay type in all cases: cell-based
# [1] = system: methicillin-resistant Staphylococcus aureus (MRSA); assay: MIC, two-fold agar dilution (CLSI), clinical isolates
# Excerpt: (§1) 1. The invention adopts the two-fold agar dilution method recommended by the operating procedure of antimicrobial susceptibility testing set by American Clinical and Laboratory Standards Institute (CLSI) to determine the Minimum Inhibitory Concentration (MIC) of the test samples against the tested strains.
# [2] = system: Escherichia coli (including ESBLs, non-ESBLs); assay: as above
# Excerpt: as §1
# [3] = system: Moraxella catarrhalis (BCA); assay: as above
# Excerpt: as §1
# [4] = system: Enterococcus faecium (EFM); assay: as above
# Excerpt: as §1
# [5] = system: methicillin-resistant Staphylococcus epidermidis (MRSE); assay: as above
# Excerpt: as §1
# [6] = system: methicillin-sensitive Staphylococcus aureus (MSSA); assay: as above
# Excerpt: as §1
# [7] = system: Streptococcus pneoumoniae (SPN); assay: as above
# Excerpt: as §1
# [8] = system: methicillin-sensitive Staphylococcus epidermidis (MSSE); assay: as above
# Excerpt: as §1
# [9] = system: Enterococcus faecalis (EFA); assay: as above
# Excerpt: as §1
# [10] = system: HCT-116 colorectal cancer cell line; assay: CCK-8 proliferation inhibition; conditions: Homo sapiens, HCT-116, 72 h, concentration of 30 μM; 72 hours; CCK-8; read-out: HCT116 inhibition rate/%
# Description: (1) HCT-116 colorectal cancer cell line, A549 lung cancer cell line, MGC-803 gastric cancer cell line, BEL-7402 liver cancer cell line, Jurkat T cell leukemia cell line, HL60 acute myeloid leukemia cell line, Hela cervical cancer cell line, MCF-7 breast cancer cell line, PC3 prostate cancer cell line and SAOS-2 osteosarcoma cell line were made into single cell suspension, 180 μL of which was inoculated into 96-well culture plate, which was cultured overnight in CO2 incubator (37° C., 5% CO2, 95% air).
# (2) Each of the spiro three-membered ring, spiro five membered ring peptide deformylase inhibitors was dissolved in DMSO, and was further formulated into drug solution with required different final concentration using corresponding cell culture medium. The drug solutions were added to the above cells respectively (20 μL/well), with the control group added with 1‰ DMSO, and cultured in a CO2 incubator for 72 hours.
# (3) After incubation for 72 hours, the culture solution was decanted, and 100 μL of 1:10 diluted CCK-8 solution was added.
# Wherein, in step (1), the concentration of the single cell suspension was 2000 cells/well.
# Wherein, in step (2), HCT-116 cells were cultured in McCoy's 5A medium (containing 10% newborn bovine serum, 1% double antibody); A549 and PC3 cells were cultured in F12 medium (containing 10% newborn bovine serum, 1% double antibody); MGC-803, BEL-7402, SAOS-2, Jurkat and HL60 cells were cultured in 1640 medium (containing 10% newborn bovine serum, 1% double antibody); and MCF-7 and Hela cells were cultured in DMEM high glucose medium (containing 10% newborn bovine serum, 1% double antibody).
smiles,measurement,setting,value
"O=CN(O)C[C@@H](CC1CCCC1)C(=O)N1CC2(CC2)C[C@H]1C(=O)N1CCS(=O)(=O)CC1 [Example 35, N—((R)-2-(cyclopentylmethyl)-3-((S)-6-(1,1-dioxythiomorpholine-4-carbonyl)-5-azaspiro[2.4]heptane-5-yl)-3-propylcarbonyl)-N-hydroxyformamide]",MIC (anti-bacterial activity),[1]; strain MRSA 15-1,16 µg/mL
same,MIC (anti-bacterial activity),[1]; strain MRSA 15-2,32 µg/mL
same,MIC (anti-bacterial activity),[1]; strain MRSA 15-3,16 µg/mL
same,MIC (anti-bacterial activity),[1]; strain MRSA 15-4,32 µg/mL
same,MIC (anti-bacterial activity),[2]; strain ECO+ 15-1,32 µg/mL
same,MIC (anti-bacterial activity),[2]; strain ECO+ 15-2,> 32 µg/mL
same,MIC (anti-bacterial activity),[2]; strain ECO+ 15-3,> 32 µg/mL
same,MIC (anti-bacterial activity),[2]; strain ECO+ 15-4,> 32 µg/mL
same,MIC (anti-bacterial activity),[2]; strain ECO− 15-1,> 32 µg/mL
same,MIC (anti-bacterial activity),[2]; strain ECO− 15-2,> 32 µg/mL
same,MIC (anti-bacterial activity),[2]; strain ECO− 15-3,> 32 µg/mL
same,MIC (anti-bacterial activity),[2]; strain ECO− 15-4,> 32 µg/mL
same,"Anti-bacterial activity (MIC), strain BCA 14-10",[3]; clinical isolate BCA 14-10,32 µg/mL
same,MIC (anti-bacterial activity),[3]; strain BCA 14-1,32 µg/mL
same,MIC (anti-bacterial activity),[3]; strain BCA 14-4,32 µg/mL
same,MIC (anti-bacterial activity),[3]; strain BCA 14-5,16 µg/mL
same,MIC (anti-bacterial activity),[3]; strain BCA 14-6,32 µg/mL
same,MIC (anti-bacterial activity),[3]; strain BCA 14-7,32 µg/mL
same,MIC (anti-bacterial activity),[3]; strain BCA 14-8,32 µg/mL
same,MIC (anti-bacterial activity),[4]; strain EFM 15-1,16 µg/mL
same,MIC (anti-bacterial activity),[4]; strain EFM 15-2,16 µg/mL
same,MIC (anti-bacterial activity),[4]; strain EFM 15-3,16 µg/mL
same,MIC (anti-bacterial activity),[4]; strain EFM 15-4,16 µg/mL
same,MIC (anti-bacterial activity),[4]; strain EFM 15-5,16 µg/mL
same,MIC (anti-bacterial activity),[4]; strain EFM 15-6,16 µg/mL
same,MIC (anti-bacterial activity),[5]; strain MRSE 15-1,16 µg/mL
same,MIC (anti-bacterial activity),[5]; strain MRSE 15-2,32 µg/mL
same,MIC (anti-bacterial activity),[5]; strain MRSE 15-3,32 µg/mL
same,MIC (anti-bacterial activity),[5]; strain MRSE 15-7,32 µg/mL
same,MIC (anti-bacterial activity),[6]; strain MSSA 15-3,32 µg/mL
same,MIC (anti-bacterial activity),[6]; strain MSSA 15-4,32 µg/mL
same,MIC (anti-bacterial activity),[6]; strain MSSA 15-5,32 µg/mL
same,MIC (anti-bacterial activity),[6]; strain MSSA 15-6,32 µg/mL
same,MIC (anti-bacterial activity),[7]; strain SPN 16-2,16 µg/mL
same,MIC (anti-bacterial activity),[7]; strain SPN 16-4,32 µg/mL
same,MIC (anti-bacterial activity),[8]; strain MSSE 15-3,32 µg/mL
same,MIC (anti-bacterial activity),[8]; strain MSSE 15-4,32 µg/mL
same,MIC (anti-bacterial activity),[8]; strain MSSE 15-5,32 µg/mL
same,MIC (anti-bacterial activity),[8]; strain MSSE 15-6,32 µg/mL
same,MIC (anti-bacterial activity),[9]; strain EFA 15-1,32 µg/mL
same,MIC (anti-bacterial activity),[9]; strain EFA 15-2,32 µg/mL
same,MIC (anti-bacterial activity),[9]; strain EFA 15-3,32 µg/mL
same,MIC (anti-bacterial activity),[9]; strain EFA 15-4,32 µg/mL
same,MIC (anti-bacterial activity),[9]; strain EFA 15-5,32 µg/mL
same,MIC (anti-bacterial activity),[9]; strain EFA 15-6,32 µg/mL
same,MIC (anti-bacterial activity),[9]; strain EFA 15-9,32 µg/mL
same,inhibition at 30 µM,[10],-1%
CCCC[C@H](CN(O)C=O)C(=O)N1CC2(CC2)C[C@H]1C(=O)NC1CC1 [Example 18],MIC (anti-bacterial activity),[1]; strain MRSA 15-1,2 µg/mL
same,MIC (anti-bacterial activity),[1]; strain MRSA 15-2,2 µg/mL
same,MIC (anti-bacterial activity),[1]; strain MRSA 15-3,2 µg/mL
same,MIC (anti-bacterial activity),[1]; strain MRSA 15-4,2 µg/mL
same,MIC (anti-bacterial activity),[2]; strain ECO+ 15-1,32 µg/mL
same,MIC (anti-bacterial activity),[2]; strain ECO+ 15-2,32 µg/mL
same,MIC (anti-bacterial activity),[2]; strain ECO+ 15-3,32 µg/mL
same,MIC (anti-bacterial activity),[2]; strain ECO+ 15-4,32 µg/mL
same,MIC (anti-bacterial activity),[2]; strain ECO− 15-1,> 32 µg/mL
same,MIC (anti-bacterial activity),[2]; strain ECO− 15-2,> 32 µg/mL
same,MIC (anti-bacterial activity),[2]; strain ECO− 15-3,32 µg/mL
same,MIC (anti-bacterial activity),[2]; strain ECO− 15-4,32 µg/mL
same,MIC (anti-bacterial activity),[3]; strain BCA 14-1,16 µg/mL
same,MIC (anti-bacterial activity),[3]; strain BCA 14-4,8 µg/mL
same,MIC (anti-bacterial activity),[3]; strain BCA 14-5,4 µg/mL
same,MIC (anti-bacterial activity),[3]; strain BCA 14-6,16 µg/mL
same,MIC (anti-bacterial activity),[3]; strain BCA 14-7,4 µg/mL
same,MIC (anti-bacterial activity),[3]; strain BCA 14-8,4 µg/mL
same,MIC (anti-bacterial activity),[3]; strain BCA 14-10,4 µg/mL
same,MIC (anti-bacterial activity),[4]; strain EFM 15-1,8 µg/mL
same,MIC (anti-bacterial activity),[4]; strain EFM 15-2,8 µg/mL
same,MIC (anti-bacterial activity),[4]; strain EFM 15-3,2 µg/mL
same,MIC (anti-bacterial activity),[4]; strain EFM 15-4,8 µg/mL
same,MIC (anti-bacterial activity),[4]; strain EFM 15-5,4 µg/mL
same,MIC (anti-bacterial activity),[4]; strain EFM 15-6,8 µg/mL
same,MIC (anti-bacterial activity),[5]; strain MRSE 15-1,2 µg/mL
same,MIC (anti-bacterial activity),[5]; strain MRSE 15-2,2 µg/mL
same,MIC (anti-bacterial activity),[5]; strain MRSE 15-3,2 µg/mL
same,MIC (anti-bacterial activity),[5]; strain MRSE 15-7,2 µg/mL
same,MIC (anti-bacterial activity),[6]; strain MSSA 15-3,2 µg/mL
same,MIC (anti-bacterial activity),[6]; strain MSSA 15-4,2 µg/mL
same,MIC (anti-bacterial activity),[6]; strain MSSA 15-5,2 µg/mL
same,MIC (anti-bacterial activity),[6]; strain MSSA 15-6,2 µg/mL
same,MIC (anti-bacterial activity),[7]; strain SPN 16-2,16 µg/mL
same,MIC (anti-bacterial activity),[7]; strain SPN 16-4,4 µg/mL
same,MIC (anti-bacterial activity),[8]; strain MSSE 15-3,2 µg/mL
same,MIC (anti-bacterial activity),[8]; strain MSSE 15-4,2 µg/mL
same,MIC (anti-bacterial activity),[8]; strain MSSE 15-5,2 µg/mL
same,MIC (anti-bacterial activity),[8]; strain MSSE 15-6,2 µg/mL
same,MIC (anti-bacterial activity),[9]; strain EFA 15-1,32 µg/mL
same,MIC (anti-bacterial activity),[9]; strain EFA 15-2,32 µg/mL
same,MIC (anti-bacterial activity),[9]; strain EFA 15-3,8 µg/mL
same,MIC (anti-bacterial activity),[9]; strain EFA 15-4,32 µg/mL
same,MIC (anti-bacterial activity),[9]; strain EFA 15-5,32 µg/mL
same,MIC (anti-bacterial activity),[9]; strain EFA 15-6,32 µg/mL
same,MIC (anti-bacterial activity),[9]; strain EFA 15-9,32 µg/mL
same,inhibition at 30 µM,[10],5%
